Target: Human DAAO (Homo sapiens, UniProt P14920)
Assay: D-Amino Acid Oxidase enzyme assay (D-serine, horseradish peroxidase/Amplex Red coupled fluorescence)
Format: biochemical
Details: D-serine 5 mM, pH 7.4
Method: DAAO enzyme activity was measured using the substrate D-serine at its Michaelis-Menton Km of 5 mM. The rate of oxidation is measured as a rate of production of hydrogen peroxide, which was detected using the enzyme horseradish peroxidase (Sigma cat. No. P-8375). This coupled reaction uses the enzyme substrate Amplex Red (Molecular Probes), which is converted to the fluorescent reaction product, resorufin (excitation 530-560 nm; emission ˜590 nm). Although DAAO has a higher pH optimum, all reagents were prepared in 50 mM sodium phosphate buffer at pH 7.4 and inhibition curves were generated at this pH.
The final concentrations of components in 200 μl total volume per well (black clear-bottom 96-well plate, Costar) were:
(a) Horseradish peroxidase: 4 Units per mL
(d) Amplex Red reagent: 50 uM
The reactions were initiated by addition of DAAO enzyme and the fluorescence was monitored. H2O2 was added at 16 uM final concentration to a control well on each plate to test for compound interference with a coupled enzyme. Inhibition curves were generated in the presence of varying concentrations of the inhibitor and IC50 values were calculated for each inhibitor.

Sequence of Human DAAO (P14920 whole entry): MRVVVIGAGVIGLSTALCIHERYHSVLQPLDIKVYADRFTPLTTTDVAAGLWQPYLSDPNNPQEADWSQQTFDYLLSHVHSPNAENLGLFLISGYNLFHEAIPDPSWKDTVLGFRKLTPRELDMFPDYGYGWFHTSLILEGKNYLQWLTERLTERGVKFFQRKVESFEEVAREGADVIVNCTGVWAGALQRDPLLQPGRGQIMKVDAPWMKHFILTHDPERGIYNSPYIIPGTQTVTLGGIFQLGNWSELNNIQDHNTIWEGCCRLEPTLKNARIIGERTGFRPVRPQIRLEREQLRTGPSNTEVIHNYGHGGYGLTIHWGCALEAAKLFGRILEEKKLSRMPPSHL

Structure (SMILES)	IC50 [µM]
CCCC1CCc2[nH]c(C(=O)O)cc21 (single isomer, unassigned) [Compound 9, 4-propyl-1,4,5,6-tetrahydrocyclopenta[b]pyrrole-2-carboxylic acid]	≤ 100
O=C(O)c1cc2c([nH]1)CCC2Cc1cccc(-c2ccc(O)cc2)c1 (stereo not shown) [Compound 85, 4-((4′-hydroxybiphenyl-3-yl)methyl)-1,4,5,6-tetrahydrocyclopenta[b]pyrrole-2-carboxylic acid]	≤ 100
Cc1ccc(C2CCc3[nH]c(C(=O)O)cc32)cc1 (stereo not shown) [Compound 37, 4-p-tolyl-1,4,5,6-tetrahydrocyclopenta[b]pyrrole-2-carboxylic acid]	≤ 1
O=C(O)c1cc2c([nH]1)C(Cc1ccc(-c3ccccc3)cc1)CC2 (stereo not shown) [Compound 133, 6-(biphenyl-4-ylmethyl)-1,4,5,6-tetrahydrocyclopenta[b]pyrrole-2-carboxylic acid]	≤ 1
CC1CCc2[nH]c(C(=O)O)cc21 (single isomer, unassigned) [Compound 5, 4-methyl-1,4,5,6-tetrahydrocyclopenta[b]pyrrole-2-carboxylic acid]	≤ 1
O=C(O)c1cc2c([nH]1)C(CCc1cccc3ccccc13)CC2 (stereo not shown) [Compound 132, 6-(2-(naphthalen-1-yl)ethyl)-1,4,5,6-tetrahydrocyclopenta[b]pyrrole-2-carboxylic acid]	≤ 1
O=C(O)c1cc2c([nH]1)CCC2c1cc(F)cc(F)c1 (racemic) [Compound 98, 4-(3,5-difluorophenyl)-1,4,5,6-tetrahydrocyclopenta[b]pyrrole-2-carboxylic acid]	≤ 1
CC(=O)c1cccc(CC2CCc3[nH]c(C(=O)O)cc32)c1 (stereo not shown) [Compound 76, 4-(3-acetylbenzyl)-1,4,5,6-tetrahydrocyclopenta[b]pyrrole-2-carboxylic acid]	≤ 1
O=C(O)c1cc2c([nH]1)CCC2Cc1cccc(-c2ccco2)c1 (racemic) [Compound 87, 4-(3-(furan-2-yl)benzyl)-1,4,5,6-tetrahydrocyclopenta[b]pyrrole-2-carboxylic acid]	≤ 100
O=C(O)c1cc2c([nH]1)CCCC2 [Compound 30, 4,5,6,7-tetrahydro-1H-indole-2-carboxylic acid]	≤ 1
O=C(O)c1cc2c([nH]1)C(c1ccc(-c3ccccc3)cc1)CC2 (single isomer, unassigned) [Compound 119, 6-(biphenyl-4-yl)-1,4,5,6-tetrahydrocyclopenta[b]pyrrole-2-carboxylic acid]	≤ 1
CC(C)(C)c1c(C(=O)O)[nH]c2c1C(=O)CC2 [Compound 3, 3-tert-butyl-4-oxo-1,4,5,6-tetrahydrocyclopenta[b]pyrrole-2-carboxylic acid]	> 100
N#Cc1cccc(C2CCc3cc(C(=O)O)[nH]c32)c1 (stereo not shown) [Compound 117, 6-(3-cyanophenyl)-1,4,5,6-tetrahydrocyclopenta[b]pyrrole-2-carboxylic acid]	≤ 1
O=C(O)c1cc2c([nH]1)CCCC2Cc1ccccc1 (stereo not shown) [Compound 32, 4-benzyl-4,5,6,7-tetrahydro-1H-indole-2-carboxylic acid]	≤ 100
O=C(O)c1cc2c([nH]1)CCC2Cc1ccc(Cl)cc1 (single isomer, unassigned) [Compound 16, 4-(4-chlorobenzyl)-1,4,5,6-tetrahydrocyclopenta[b]pyrrole-2-carboxylic acid]	≤ 100
Cc1cc(C)cc(C2CCc3[nH]c(C(=O)O)cc32)c1 (stereo not shown) [Compound 104, 4-(3,5-dimethylphenyl)-1,4,5,6-tetrahydrocyclopenta[b]pyrrole-2-carboxylic acid]	≤ 100
O=C(O)c1cc2c([nH]1)CCC2Cc1ccc(F)cc1F (single isomer, unassigned) [Compound 46, 4-(2,4-difluorobenzyl)-1,4,5,6-tetrahydrocyclopenta[b]pyrrole-2-carboxylic acid]	≤ 100

Results, then the compound that gave them:

IC50 [µM]	Structure (SMILES)
≤ 1	O=C(O)c1cc2c([nH]1)CCC2CCc1ccccc1 (racemic) [Compound 18, 4-phenethyl-1,4,5,6-tetrahydrocyclopenta[b]pyrrole-2-carboxylic acid]
≤ 0.1	O=C(O)c1cc2c([nH]1)C(Cc1cccc(Br)c1)CC2 (racemic) [Compound 125, 6-(3-bromobenzyl)-1,4,5,6-tetrahydrocyclopenta[b]pyrrole-2-carboxylic acid]
≤ 0.1	O=C(O)c1cc2c([nH]1)CCC2Cc1cccc(-c2ccc[nH]2)c1 (racemic) [Compound 91, 4-(3-(1H-pyrrol-2-yl)benzyl)-1,4,5,6-tetrahydrocyclopenta[b]pyrrole-2-carboxylic acid]
≤ 0.1	C[C@H]1[C@H]2Cc3[nH]c(C(=O)O)cc3[C@@H]12 (racemic) [Compound 141, ±(1S,1aS,5aR)-1-methyl-1a,4,5,5a-tetrahydro-1H-4-aza-cyclopropa[α]pentalene-3-carboxylic acid]
≤ 1	CCCC1CCc2cc(C(=O)O)[nH]c21 (stereo not shown) [Compound 110, 6-propyl-1,4,5,6-tetrahydrocyclopenta[b]pyrrole-2-carboxylic acid]
≤ 1	NC(=O)c1cccc(CC2CCc3[nH]c(C(=O)O)cc32)c1 (stereo not shown) [Compound 77, 4-(3-carbamoylbenzyl)-1,4,5,6-tetrahydrocyclopenta[b]pyrrole-2-carboxylic acid]
≤ 1	O=C(O)c1cc2c([nH]1)CCC2Cc1cccc(-c2ccc(CO)cc2)c1 (stereo not shown) [Compound 86, 4-((4′-(hydroxymethyl)biphenyl-3-yl)methyl)-1,4,5,6-tetrahydrocyclopenta[b]pyrrole-2-carboxylic acid]
≤ 0.1	O=C(O)c1cc2c([nH]1)C[C@@H]1[C@H](CCc3ccccc3)[C@H]21 (racemic) [Compound 143, ±(1S,1aS,5aR)-1-phenethyl-1a,4,5,5a-tetrahydro-1H-4-aza-cyclopropa[α]pentalene-3-carboxylic acid]
≤ 0.1	O=C(O)c1cc2c([nH]1)CCC2Cc1ccccc1 (stereo not shown) [Compound 17, 4-benzyl-1,4,5,6-tetrahydrocyclopenta[b]pyrrole-2-carboxylic acid]
≤ 0.1	O=C(O)c1cc2c([nH]1)CCC2Cc1cccc(C2CC2)c1 (stereo not shown) [Compound 73, 4-(3-cyclopropylbenzyl)-1,4,5,6-tetrahydrocyclopenta[b]pyrrole-2-carboxylic acid]
≤ 0.1	O=C(O)c1cc2c([nH]1)CCC2Cc1ccc(F)c(F)c1 (racemic) [Compound 42, 4-(3,4-difluorobenzyl)-1,4,5,6-tetrahydrocyclopenta[b]pyrrole-2-carboxylic acid]
≤ 0.1	O=C(O)c1cc2c([nH]1)CCC2Cc1ccc(Cl)cc1 (single isomer, unassigned) [Compound 15, 4-(4-chlorobenzyl)-1,4,5,6-tetrahydrocyclopenta[b]pyrrole-2-carboxylic acid]
≤ 0.1	O=C(O)c1cc2c([nH]1)CCC2Cc1ccc(F)c(Cl)c1 (racemic) [Compound 48, 4-(3-chloro-4-fluorobenzyl)-1,4,5,6-tetrahydrocyclopenta[b]pyrrole-2-carboxylic acid]
≤ 0.1	COc1cccc(CC2CCc3[nH]c(C(=O)O)cc32)c1 (racemic) [Compound 66, 4-(3-methoxybenzyl)-1,4,5,6-tetrahydrocyclopenta[b]pyrrole-2-carboxylic acid]

From patent US7902252B2, “Inhibitors of D-amino acid oxidase” (Sepracor, Inc., priority 2007, dated 2011)
